# Patent US10562888B2, “Crystalline FGFR4 inhibitor compound and uses thereof” (Eisai R&D Management Co., Ltd., priority 2015, dated 2020)
# Experiment: Solubility in 0.1 N HCl
# Type: physicochemical
# Conditions: simulated gastric fluid
smiles,measurement,value
"C=CC(=O)Nc1cc(N2CCN(CC)CC2)ccc1Nc1cc(N(C)C(=O)Nc2c(Cl)c(OC)cc(OC)c2Cl)ncn1 [Compound 108, N-(2-((6-(3-(2,6-dichloro-3,5-dimethoxyphenyl)-1-methylureido)pyrimidin-4-yl)amino)-5-(4-ethylpiperazin-1-yl)phenyl)acrylamide]",solubility,5200 µg/mL
